Here are results for 13 compounds from article PMC9705435, “Thiocarbazate building blocks enable the construction of azapeptides for rapid development of therapeutic candidates” (Nature Communications, 2022).

One series has as its target T1, HMGB1/MD-2 binding (Homo sapiens, UniProt Q9Y6Y9).
T1 construct: purchased R&D Systems 1787-MD
T1 sequence (Q9Y6Y9 17-160 limits assumed): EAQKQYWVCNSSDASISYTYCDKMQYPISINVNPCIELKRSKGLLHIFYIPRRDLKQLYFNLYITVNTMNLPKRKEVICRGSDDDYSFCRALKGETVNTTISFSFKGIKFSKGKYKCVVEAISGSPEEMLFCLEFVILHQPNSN
Nature of the series: SPR HMGB1/MD-2 binding inhibition assay. Conditions: immobilized disulfide HMGB1, MD-2 0.25 µM.

Another series can be described thus: in vitro. Conditions: male, C57BL/6J, mouse, blood.
The target in series [1] is T2, Human B2 (h) receptor (B2R) (Homo sapiens, UniProt P30411).
T2 construct: host or cells: CHO cells
T2 sequence (P30411 1-391): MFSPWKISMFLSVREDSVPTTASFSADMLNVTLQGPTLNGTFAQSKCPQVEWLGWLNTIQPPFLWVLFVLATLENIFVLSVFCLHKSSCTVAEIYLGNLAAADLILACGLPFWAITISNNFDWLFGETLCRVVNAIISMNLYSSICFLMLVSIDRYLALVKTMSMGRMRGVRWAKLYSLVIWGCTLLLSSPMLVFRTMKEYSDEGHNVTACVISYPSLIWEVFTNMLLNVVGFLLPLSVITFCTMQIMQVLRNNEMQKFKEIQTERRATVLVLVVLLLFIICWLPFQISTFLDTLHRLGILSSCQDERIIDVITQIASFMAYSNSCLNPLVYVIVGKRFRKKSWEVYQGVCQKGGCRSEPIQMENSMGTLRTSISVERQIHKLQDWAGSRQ
Nature of the series: Human B2 (h) (agonist radioligand) receptor binding assay, [3H]bradykinin displacement. Particulars: Eurofins Cerep report. From the text:
The data was collected by CRO Eurofins Cerep (France) and the result is attached as an additional data file. B2R radioligand agonist binding displacement assay for determination of IC-50.
Test compounds (FI-U / [azaP2, azaF8-BK (70), FI-2V / azaF8-BK (68), and FI-8G / azaP2-BK (63)) were supplied to Eurofins in a blinded manner and run at five concentrations to determine the IC-50’s. Standard company control test compounds were used for assay validation. Experimental assays achieved inhibition of more than 50% and were considered to represent significant effects of the test compounds.
(B2(h)) was used as the agonist for B2R receptor binding. The results are expressed as a percent of control specific binding (measured specific binding /control specific binding)*100, and as a percent inhibition of control specific binding (100 minus (measured specific binding/ control specific binding)*100) obtained in the presence of the test compounds. The IC50 values (concentration causing a half-maximal inhibition of control specific binding) and Hill coefficients (nH) were determined by non-linear regression analysis of the competition curves generated with mean replicate values using Hill equation curve fitting Y=D+[ A-D / 1+(C/C50) nH] where Y = specific binding, A = left asymptote of the curve, D = right asymptote of the curve, C = compound concentration, C50 = IC50, and nH = slope factor. This analysis was performed using software developed at Cerep (Hill software) and validated by comparison with data generated by the commercial software SigmaPlot® 4.0 for […]
The inhibition constants (Ki) were calculated using the Cheng Prusoff equation. Ki=IC50/(1+L/Kd) where L = concentration of radioligand in the assay, and Kd = affinity of the radioligand for the receptor. A scatchard plot is used to determine the Kd. […]
9.1. Experimental Conditions
9.1.1. In Vitro Pharmacology: Binding Assays
Assay Source Ligand Conc. Kd Non Specific Incubation Detection Bibl.
(agonist recombinant (1 µM) RT counting
9.2. Analysis and expression of results
9.2.1. In Vitro Pharmacology: Binding Assays
The results are expressed as a percent of control specific binding measured specific binding *100 […]
and as a percent inhibition of control specific binding
100-( measured specific binding *100) […]
obtained in the presence of the test compounds.
The IC50 values (concentration causing a half-maximal inhibition of control specific binding) and Hill coefficients (nH) were determined by non-linear regression analysis of the competition curves generated with mean replicate values using Hill equation […]
where Y = specific binding, A = left asymptote of the curve, D = right asymptote of the curve, C = compound concentration, C50 = IC50, and nH = slope factor. This analysis was performed using software developed at Cerep (Hill software) and validated by […]
The inhibition constants (Ki ) were calculated using the Cheng Prusoff equation where L = concentration of radioligand in the assay, and KD = affinity of the radioligand for the receptor. A scatchard plot is used to […]

Where “and” joins values, the source holds several entries; their conditions need not be identical. Equal values may be shown once. Numbered stars: 1 amine (or outer) side, 2 acyl side, 3 side chain; on linkers, the order of the positions; unused ones are H or OH. Square brackets hold non-standard residues; d marks the D form. Peptide text beside a SMILES is read from it. * marks the point of attachment. azaPhe = O=C(N(Cc1ccccc1)N[*:1])[*:2]; azaPro = O=C(N1CCCN1[*:1])[*:2]; X1 = N=C(N)NCCCN(N)C(=O)*; azaGly = NNC(=O)O

Consider `NC(=O)[C@H](CCC(=O)O)NC(=O)[C@H](CO)NC(=O)[C@H](CO)NC(=O)N(N)Cc1ccccc1` [Compound 52, azaF^1SSE-NH2], for which the IC50 on HMGB1/MD-2 binding was 249 nM. For the same compound, the half-life in “in vitro” was over 120 min.

In turn, `NC(=O)N(CCC(=O)O)NC(=O)[C@H](CO)NC(=O)[C@H](CO)NC(=O)[C@@H](N)Cc1ccccc1` [Compound 53, FSSazaE^4-NH2] registered an IC50 at HMGB1/MD-2 binding of 397 nM. In “in vitro” (Ex-vivo stability t 1/2), this compound showed a half-life of 2.6 ± 0.11 min.

At HMGB1/MD-2 binding, `NN(Cc1ccccc1)C(=O)N[C@@H](CO)C(=O)N[C@@H](CO)C(=O)N[C@@H](CCC(=O)O)C(=O)O` [Compound 54, azaF^1SSE-OH] returned an IC50 of 127 nM. In the series “in vitro”, this compound returned a half-life of over 120 min.

Consider `NC(=O)CC[C@H](NC(=O)[C@H](CO)NC(=O)[C@H](CO)NC(=O)N(N)Cc1ccccc1)C(=O)O` [Compound 55, azaF^1SSQ-OH], for which the IC50 on HMGB1/MD-2 binding was found to be 159 nM. The compound also showed a half-life in “in vitro” of 24.4 ± 1.6 min.

For the compound `NC(=O)CC[C@H](NC(=O)[C@H](CO)NC(=O)[C@H](CO)NC(=O)N(N)Cc1ccccc1)C(N)=O` [Compound 56, azaF^1SSQ-NH2], the IC50 at HMGB1/MD-2 binding was found to be 349 nM. Also, the half-life in the series “in vitro” was over 120 min.

As for `N=C(N)NCCC[C@H](NC(=O)[C@H](Cc1ccccc1)NC(=O)[C@@H]1CCCN1C(=O)[C@H](CO)NC(=O)[C@H](Cc1ccccc1)NC(=O)CNC(=O)[C@@H]1CCCN1C(=O)[C@@H]1CCCN1C(=O)N(N)CCCNC(=N)N)C(=O)O` [Compound 62] (X1-PPGFSPFR-OH), the half-life in the series “in vitro” amounted to 2.46 ± 0.05 min.

In the case of `N=C(N)NCCC[C@H](NC(=O)[C@H](Cc1ccccc1)NC(=O)[C@@H]1CCCN1C(=O)[C@H](CO)NC(=O)[C@H](Cc1ccccc1)NC(=O)CNC(=O)N1CCCN1C(=O)[C@@H]1CCCN1C(=O)[C@@H](N)CCCNC(=N)N)C(=O)O` [Compound 64, RPazaP^3GFSPFR], the half-life in the series “in vitro” came to 2.63 ± 0.25 min.

For `N=C(N)NCCC[C@H](NC(=O)[C@H](Cc1ccccc1)NC(=O)[C@@H]1CCCN1C(=O)[C@H](CO)NC(=O)[C@H](Cc1ccccc1)NC(=O)NNC(=O)[C@@H]1CCCN1C(=O)[C@@H]1CCCN1C(=O)[C@@H](N)CCCNC(=N)N)C(=O)O` [Compound 65, RPPazaG^4FSPFR] (H-RPP[azaGly]FSPFR-OH; N-terminus and C-terminus assumed), in “in vitro”, the half-life turned out to be 4.33 ± 1.3 min.

Turning to `N=C(N)NCCC[C@H](NC(=O)[C@H](Cc1ccccc1)NC(=O)[C@@H]1CCCN1C(=O)[C@H](CO)NC(=O)N(Cc1ccccc1)NC(=O)CNC(=O)[C@@H]1CCCN1C(=O)[C@@H]1CCCN1C(=O)[C@@H](N)CCCNC(=N)N)C(=O)O` [Compound 66, RPPGazaF^5SPFR] (H-RPPG[azaPhe]SPFR-OH; N-terminus and C-terminus assumed), the half-life in “in vitro” was 14.7 ± 1.6 min.

Consider `N=C(N)NCCC[C@H](NC(=O)[C@H](Cc1ccccc1)NC(=O)N1CCCN1C(=O)[C@H](CO)NC(=O)[C@H](Cc1ccccc1)NC(=O)CNC(=O)[C@@H]1CCCN1C(=O)[C@@H]1CCCN1C(=O)[C@@H](N)CCCNC(=N)N)C(=O)O` [Compound 67, RPPGFSazaP^7FR] (H-RPPGFS[azaPro]FR-OH), for which the half-life in the series “in vitro” is 2.38 ± 0.03 min.

Regarding `N=C(N)NCCC[C@H](N)C(=O)N1CCC[C@H]1C(=O)N1CCC[C@H]1C(=O)NCC(=O)N[C@@H](Cc1ccccc1)C(=O)N[C@@H](CO)C(=O)N1CCC[C@H]1C(=O)N[C@@H](Cc1ccccc1)C(=O)NN(CCCNC(=N)N)C(=O)O` [Compound 69], in “in vitro”, the half-life turned out to be 42.6 ± 0.8 min.

As to `N=C(N)NCCC[C@H](NC(=O)N(Cc1ccccc1)NC(=O)[C@@H]1CCCN1C(=O)[C@H](CO)NC(=O)N(Cc1ccccc1)NC(=O)CNC(=O)[C@@H]1CCCN1C(=O)[C@@H]1CCCN1C(=O)[C@@H](N)CCCNC(=N)N)C(=O)O` [Compound 71, RPPGazaF^5SPazaF^8R] (H-RPPG[azaPhe]SP[azaPhe]R-OH; N-terminus and C-terminus assumed), the half-life in the series “in vitro” is 106 ± 1.8 min.

Turning to `N=C(N)NCCC[C@@H](N)C(=O)N[C@@H](CCCNC(=N)N)C(=O)N1CCC[C@H]1C(=O)N1C[C@H](O)C[C@H]1C(=O)NCC(=O)N[C@@H](Cc1ccccc1)C(=O)N[C@@H](CO)C(=O)N[C@H](Cc1ccccc1)C(=O)N[C@@H](Cc1ccccc1)C(=O)N[C@@H](CCCNC(=N)N)C(=O)O` [NPC 567, reference compound], the “nH (Hill coefficient)” value in series [1] was 0.6 and 0.9.

As a reminder, the IC50 is the concentration that gives 50% inhibition. The half-life is the time in which the quantity being followed falls by half. High values mean slow decline, low ones rapid decline.
